What was measured:
sensory panel [1] = assay: Sensory panel, coffee composition (Emmi Noir coffee, containing milk); format: in vivo, human; details: 200 ppm in coffee containing milk; panel score
Experimental: (§1) Next, glucose-6-O-octanoate was added to a coffee composition (Emmi Noir coffee, containing milk), to result in a final concentration of 200 ppm in the test composition. In parallel, a control composition, comprising Emmi Noir coffee, containing milk was also generated. A sensory panel consisting of between 6 to 8 persons compared the overall flavor, sweetness, acidity, bitterness, astringency, off-notes, and long-lastingness of the sweetness of the test composition and the control composition. The results were analyzed using the Duncan comparison test.

sensory panel [2] = assay: Sensory panel, strawberry flavored bottled water (BWAT) containing 7% w/v sucrose; format: in vivo, human; details: 100 ppm in strawberry BWAT 7% sucrose; panel score
Experimental: Next, glucose-6-O-octanoate was added to a fruit flavored bottled water test composition (strawberry flavored water, containing 7% w/v sucrose), to result in a final concentration of 100 ppm in the test composition.

sensory panel [3] = assay: Sensory panel, pomegranate juice; format: in vivo, human; details: 100 ppm in pomegranate juice; panel score
Experimental: as §1, with “pomegranate juice composition,” for “coffee composition (Emmi Noir coffee, containing milk),”, “100” for “200”, “pomegranate juice” for “Emmi Noir coffee, containing milk”

sensory panel [4] = assay: Sensory panel, orange flavored test composition; format: in vivo, human; details: 200 ppm in orange flavored test composition, panel score
Experimental: as §1, with “an orange flavored test composition,” for “a coffee composition (Emmi Noir coffee, containing milk),”, “orange flavor” for “Emmi Noir coffee, containing milk”

sensory panel [5] = assay: Taste modifier properties in model systems (sensory panel of 15 persons, with/without noseclip); format: in vivo, human; details: 100 ppm; for Sour taste modulation effect: without nose clip
Experimental: The sensory properties of various compositions comprising a monoester derivative of glucose were tested in various model systems, outlined in Table 14 below. [table] FIGS. 12 to 18 report the sweetness modifier properties of each of the following compounds (tested at 100 ppm in the various mode systems described above): glucose-6-O-octanoate, glucose-6-O-acetate, glucose-6-O-hexanoate, glucose-6-O-decanoate, glucose-6-O-hexadecanoate, glucose-6-O-oleate and glucose-6-O-oleyl derivative. The sensory properties were evaluated by a sensory panel consisting of15 persons, where the properties were evaluated with the subjects wearing a noseclip (With NC), and without a noseclip (Without NC). The subjects evaluate the perceived intensities of different sensory attributes on a linear scale (“0” note intense to “10” very intense) for the corresponding model mixtures without and with the compound at 100ppm. The differences of perceived intensities between the model mixtures with and without the compound are represented for each attribute. A statistical data treatment (unilateral paired student test) is achieved on each attribute to conclude on a significant or not significant taste modulation effect of the compound.

β-Lactoglobulin layer = target: T1, β-Lactoglobulin layer (Bos taurus, UniProt P02754); assay: QCM-D mass adsorption of BWAT Raspberry water films on a protein layer; format: physicochemical; details: for mass/area: mass absorption on protein layer
T1 sequence (P02754 17-178): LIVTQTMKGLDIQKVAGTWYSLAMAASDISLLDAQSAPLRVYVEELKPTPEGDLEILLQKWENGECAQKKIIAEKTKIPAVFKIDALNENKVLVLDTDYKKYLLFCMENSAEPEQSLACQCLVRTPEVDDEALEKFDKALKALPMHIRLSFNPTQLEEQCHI
Description: Quartz Crystal Microbalance with Dissipation monitoring (QCM-D) is a real-time, nanoscale technique for monitoring and characterizing thin films on surfaces as well for analyzing surface phenomena including thin film formation, adsorption, desorption, molecular interactions, reactions and structural properties. In this way, the QCM operates as a very sensitive balance.
A QCM sensor consists of a thin quartz disc sandwiched between a pair of electrodes. Due to the piezoelectric properties of quartz, it is possible to excite the crystal to oscillation by applying an AC voltage across its electrodes. Normally the electrodes are made of gold, which can be coated with a wide range of different materials. The resonance frequency (f) of the sensor depends on the total oscillating mass, including water coupled to the oscillation. When a thin film is attached to the sensor, the frequency decreases. If the film is thin and rigid the decrease in frequency is proportional to the mass of the film. Frequency monitoring gives information about mass changes and thickness of adsorbed film. Adsorbed films dampen the sensor's oscillation. […] Therefore dissipation is related to the rigidity of the adsorbed film.
This technique was used to analyse the properties of adsorbed BWAT Raspberry water films on a β-Lactoglobulin layer in order to compare the obtained physico-chemical data to the sensory data mentioned beforehand. β-Lactoglobulin was used in order to mimic the protein layer in the oral cavity.
The measurements were done as duplicates. First a protein layer was adsorbed on the quartz crystal. As soon as equilibrium is obtained, the excessive protein layer was rinsed with Millipore water in order to create a homogenous protein monolayer. Ensuing, the Raspberry water was left to rinse over the protein layer—frequency changes and energy dissipation were monitored during a time lapse of 10 min. A last rinsing step with Millipore was conducted.
To understand the role of glucose-6-O-octanoate (G60) as astringency/bitterness modulator the following solutions were investigated on their adsorption behavior.

How did the Acidity (sensory panel [1]) turn out when `CCCCCCCC(=O)OC[C@@H](O)[C@@H](O)[C@H](O)[C@@H](O)C=O` [glucose-6-O-octanoate] was run?
Its Acidity is 0.17.

And the Bitterness (sensory panel [1])?
The Bitterness was 1.92.

What about the “Long-lasting (sweet)” value (sensory panel [1]) of the same compound?
The value was 1.83.

What about the Off-notes (sensory panel [1]) of the same compound?
The Off-notes was 0.33.

What about the Overall Flavor (sensory panel [1]) of the same compound?
Its Overall Flavor is 3.17.

And the Astringency (sensory panel [2])?
Its Astringency is 0.5.

What about the Long-Lasting (sensory panel [2]) of the same compound?
The Long-Lasting was 0.92.

And the Off-notes (sensory panel [2])?
Its Off-notes is 0.33.

And the “Overall Flavor” value (sensory panel [2])?
The value was 3.

What about the Sweetness (sensory panel [2]) of the same compound?
Its Sweetness is 4.08.

And the Long-Lasting (sensory panel [3])?
Its Long-Lasting is 1.75.

What about the Off-notes (sensory panel [3]) of the same compound?
Its Off-notes is 0.62.

What about the “Overall Flavor” value (sensory panel [3]) of the same compound?
The value was 3.38.

What about the Acidity (sensory panel [4]) of the same compound?
The Acidity was 2.07.

What about the Astringency (sensory panel [4]) of the same compound?
The Astringency was “decreasing”.

What about the Bitterness (sensory panel [4]) of the same compound?
The Bitterness was “decreasing the perceived bitterness”.

What about the Long-Lasting (sensory panel [4]) of the same compound?
The Long-Lasting was 0.29.

And the Off-notes (sensory panel [4])?
Its Off-notes is 0.14.

And the “Overall Flavor” value (sensory panel [4])?
Its value is 3.

What about the Sweetness (sensory panel [4]) of the same compound?
The Sweetness was 2.79.

What about the Astringency (sensory panel [4]; listed as 71007) of the same compound?
Its Astringency is 1 B.

What about the Bitterness (sensory panel [4]; listed as 71007) of the same compound?
The Bitterness was 1.07 B.

What about the “Sweet taste modulation effect” value (sensory panel [5]; SG95 model mixture, without and with nose clip) of the same compound?
The value was “significant sweet enhancing effects”.

What about the “Round/thick/mouth coating modulation effect” value (sensory panel [5]; beverage grapefruit model, with nose clip, significance 95%) of the same compound?
Its value is “significant round/thick/mouth coating enhancing effect”.

And the “Sour taste modulation effect” value (sensory panel [5]; beverage grapefruit model, significance 95%)?
The value was “significant sour masking effect”.

What about the “Sweet taste modulation effect” value (sensory panel [5]; semi-skimmed milk+sucrose model mixture, without and with nose clip) of the same compound?
The value was “significant sweet enhancing effects”.

What about the “Sweet taste modulation effect” value (sensory panel [5]; stevia-sour model, with nose clip, significance 95%) of the same compound?
The value was “significant sweet masking effect”.

What about the “Sweet taste modulation effect” value (sensory panel [5]; sucrose model mixture) of the same compound?
The value was “significant sweet enhancing effects”.

And the “Sour taste modulation effect” value (sensory panel [5]; sweet-sour model mixture, significance 95%)?
The value was “significant sour masking effect”.

What about the “Mass adsorption versus control sample” value (β-Lactoglobulin layer; BWAT raspberry water in presence of G60) of the same compound?
Its value is “higher mass adsorption compared to the control sample”.

And the mass/area (β-Lactoglobulin layer; BWAT w/ 200 ppm G60)?
The mass/area was 1257 ng/cm^2.

What about the mass/area (β-Lactoglobulin layer; BWAT w/ 1000 ppm G60) of the same compound?
Its mass/area is 1194 ng/cm^2.

What about the “Amount of rinsed away mass” value (β-Lactoglobulin layer; over the 10 min of mass adsorption monitoring, dependence on G60 concentration) of the same compound?
The value was “The higher the G60 concentration the lower is the amount of rinsed away mass”.
